Results from US20050170019A1, “Methods, compositions and devices for inducing stasis in cells” (Fred Hutchinson Cancer Research Center, priority 2003, published 2005).
Where two headings read alike, the source gives them in different places.

Tests used:
[1] = system: C. elegans embryos; experiment: Viability of nematodes in carbon monoxide based atmospheres; assay type: in vivo; conditions: for viability (survival) to adulthood: 0.25 kPa O2/CO
Source text: To achieve specific atmospheric conditions the following apparatus was used: a glass syringe barrel having a tip with a locking device such as a LUER-LOK with the large opening of the barrel sealed with a custom-machined steel and rubber fitting to make an airtight seal was locked to via locking device to the inlet port of an environmental chamber having an inlet and an outlet port each fitted with a locking devices such as a LUER-LOK fitting. A defined gas was humidified and provided to the environmental chamber by first venting the gas from a compressed tank (Byrne Specialty Gas, Seattle, Wash.) through a gas washing bottle (500 ml Kimex) filled with double distilled water. The gas washing bottle was connected to the environmental chamber past a gas-flow meter. A gas flow meter was used to provide a regulated 70 cc/min flow through the environmental chamber throughout the 24 hr incubation.
(§1) To test whether induced, reversible stasis could be achieved in C. elegans nematodes, 2-cell C. elegans embryos, L3 larvae or adult nematodes were collected and exposed to either an environment of effectively 100% CO, an environment of 100% N2, an environment comprising 500 ppm oxygen balanced with carbon monoxide, or to environments comprising 100, 500 or 1000 ppm oxygen balanced with nitrogen at room temperature. Nematodes were visualized using differential interference contrast microscopy (also known as Nomarski optics). Images were collected and analyzed using NIH image and Adobe Photoshop 5.5. Embryos are approximately 50 μm in length.
Environmental chambers and apparatuses. Oxygen deprivation experiments were carried out using a custom atmospheric chamber designed by W. Van Voorhies (Van Voorhies et al., 2000). The chamber is a 30 mL glass syringe (Fisher #14-825-10B) fitted with a custom steel stopper that is lined with two viton o-rings to ensure a tight seal. The stopper is bored through and has a steel lure lock on the exterior face so that a hose carrying compressed gas can be attached. A defined gas mixture is delivered to the chamber at a constant pressure and flow rate from compressed tanks by passing first through a rotometer (Aalborg, flow-tube number 032-41ST) or mass flow controller (Sierra Instruments #810) to monitor flow rate and then through a 500 ml gas washing bottle (Fisher #K28220-5001) containing 250 ml water to hydrate the gas. ¼” OD nylon (Cole-Parmer #P-06489-06) or FEP (Cole-Parmer #A-06450-05) tubing was used and connections between tubing and the regulators and between the tubing and the rotometers were made with brass John-Guest-type fittings (Byrne Gas). All other connections were made with either microflow quick-connect fittings (Cole-Parmer #A-06363-57, #A-06363-52) or standard lure fittings (Cole-Parmer #A-06359-37, #A-06359-17).
Viability of nematodes in hypoxia. […] Log-phase, adult C. elegans were picked into a drop of sterile water containing 100 μg/ml ampicillin, 15 μg/ml tetracycline and 200 μg/ml streptomycin on a glass plate. Adults were chopped with a razor blade and 2-cell embryos were picked using a mouth pipet. 30-60 2-cell embryos were transferred to a small glass boat (custom made to fit atmospheric chambers, Avalon Glass Works, Seattle Wash.) filled with 3 ml of 1% agarose in M9. Boats were then placed into a humid chamber for 2 hours to allow the embryos to age and then placed into the environmental chamber. The environmental chambers were continuously perfused at room temperature with either pure N2 (grade 4.5), 100 ppm O2/N2, 500 ppm O2/N2, 1000 ppm O2/N2, or 5000 ppm O2/N2 at 70 cc/min for 24 hrs. Following exposure, agarose chunks containing the embryos were cut out of the boat and placed with embryos facing up onto a medium-sized NGM plate seeded with E. coli (OP50). Embryos were scored for hatching 24 hours after exposure and hatched L1's were transferred to the surface of the NGM plate and followed to adulthood. Animals that could not be accounted for were dropped from the total. […]

[2] = system: C. elegans embryos; experiment: Cell biological analysis: arrest of embryogenesis (suspended animation) in carbon monoxide-based atmospheres; assay type: in vivo
Source text: as §1
Cell biological analysis. To determine the extent of developmental progression in nitrogen-based atmospheres (Table 2), 2-cell embryos were exposed to various degrees of hypoxia as described above and were either immediately photographed, or photographed following a 12 hr recovery period in a humid chamber. To determine whether embryos arrested in carbon monoxide-based atmospheres, 2-cell embryos were aged in room air for two hours and were either photographed immediately or put into 100% carbon monoxide or 0.05 kPa O2/CO for 24 hours and photographed immediately following the exposure. In all cases, DIC microscopy was done by placing embryos under a cover slip on a thin 1% agarose pad and viewing on a Zeiss axioscope. Photographs were taken using RS Image and Adobe Photoshop software.

[3] = system: human keratinocytes; experiment: Preservation of human skin in carbon monoxide: keratinocyte growth and colony formation; assay type: cell-based
Protocol: Three human foreskins were obtained for this purpose. The foreskin tissue was preserved in keratinocyte growth medium (KGM) containing insulin, EGF (0.1 ng/ml), hydrocortisone ([…]) and bovine pituitary extract (approx. 50 micrograms/ml of protein). Foreskins were rinsed in PBS, and excess fatty tissue was removed. Each foreskin sample was divided into 2 equal pieces. Each piece was placed into a separate container containing a solution of PBS with 24 mg/ml of Dispase II (from Bacillus Polymyxa EC 3.4.24.4:Roche Diagnostics Corp., Indianapolis, Ind.). One container (containing a foreskin piece in PBS with Dispase II) was kept in a humid chamber in a fume hood. The other container (with the other half of the foreskin in PBS with Dispase II) was placed in the same fume hood in an environmental chamber perfused with humidified 100% CO. Both samples were maintained at room temperature for 24 hrs. Methods used to establish defined atmospheric conditions were identical to those used in Example 1.
Following the 24 hr exposure to normoxia or 100% CO, keratinocytes were isolated from the foreskins according to the method described by Boyce et al. (1983; 1985; each of which is incorporated herein by reference in its entirety). Briefly, the epidermis from each foreskin sample was removed to a fresh dish containing PBS. The epidermis was minced and homogenized prior to incubation in 3 ml of 0.05% Trypsin, 1 mM EDTA for 5 minutes, at room temperature, to separate basal cells from the epidermis. After incubation, 6 ml of 400 μg/ml (micrograms per ml) Soybean Trypsin Inhibitor, 1 mg/ml BSA was added and the samples were centrifuged at 900 RPM. The supernatant from each sample was discarded and the sample pellets were resuspended in 10 ml of KGM. Each sample was split into two 10 cm plates each of which contained 5 ml KGM and 100 μl of HEPES pH 7.3 (N-2-hydroxyethylpiperazine-N′-2-ethane sulfonic acid). The plates were incubated in a 37° C. incubator perfused with 95% room air, 5% carbon dioxide for five days.
Cells were inspected visually using an inverted phase contrast microscope. […] Quantitation of the number of viable keratinocytes as judged by colony formation was quantified for two of the three foreskins.

[4] = system: humans; conditions: cited from earlier work

[C-]#[O+] [carbon monoxide]
viability (survival) to adulthood ([1]; N2 (wild-type) embryos, 24 hrs): 78.7% | viability (survival) to adulthood ([1]; N2 (wild-type) embryos, 24 hrs, listed as CO): 78.7% ± 21.9 | viability to adulthood ([1]; embryos, 0.05 kPa O2 balanced with carbon monoxide, 24 hours): 96.2% | survival to adulthood ([1]; embryos, 101 kPa CO (100% CO), 24 hrs): 81.5% | viability (survival) to adulthood ([1]; hif-1(ia04) embryos, 24 hrs): 84.0% | viability (survival) to adulthood ([1]; hif-1(ia04) embryos, 24 hrs, listed as CO): 83.9% ± 13.8 | lethality ([1]; nematodes, 100% carbon monoxide, room temperature, 24 hr): not lethal | suspended animation and survival ([1]; nematodes, 500 ppm oxygen balanced with carbon monoxide): entered into suspended animation and survived | protection against hypoxia (FIG. 3) ([1]; wild-type embryos, 24 hours, 0.05 kPa O2/CO versus 0.05 kPa O2/N2): protects against hypoxia | embryogenesis during exposure ([2]; embryos, 0.05 kPa O2 balanced with carbon monoxide): arrested embryogenesis | progression through embryogenesis during exposure ([2]; embryos, 101 kPa CO): did not progress through embryogenesis | induction of suspended animation ([2]; nematodes, 100% carbon monoxide): induced reversible suspended animation | suspended animation ([2]; wild-type and hif-1(ia04) embryos, 0.25 kPa O2 balanced with carbon monoxide): entered into suspended animation | Total colonies ([3]; Foreskin 1, 100% CO 24 hrs): 542 colonies (many of which were very | Total colonies ([3]; Foreskin 2, 100% CO 24 hrs): 780 colonies (many of which were very | survival of human keratinocytes (FIG. 1) ([3]; exposure to 100% CO): survive | survival of skin cells in CO relative to room air ([3]; human skin, 100% CO, after 24 hrs): 100 fold | growth of keratinocyte populations (visual inspection) ([3]; three foreskins, 24 hr 100% CO at room temperature, then five days culture): significant growth | symptoms ([4]; 50 parts per million (ppm)): no symptoms | symptoms ([4]; 200 ppm, within two-three hours): slight headache | symptoms ([4]; 400 ppm, within one to two hours): frontal headache | symptoms ([4]; 800 ppm): dizziness, nausea, and/or convulsions within 45 minutes, and render the subject insensible within two hours | lethality ([4]; around 1000 ppm, exposure for more than around 1-2 minutes, an organism): can expire
